Assay results taken from the supplement of paper PMC10307832.

Assays:
Assay in all cases: relative viability (nuclei count vs DMSO), 5 days (fraction); higher = more cells survive
[1] = compound: COc1cc2ncn(-c3cc(OCc4ccccc4C(F)(F)F)c(C(N)=O)s3)c2cc1OC + COc1cccc2cc(-c3nc([C@H]4CC[C@H](C(=O)O)CC4)n4ncnc(N)c34)[nH]c12 [OSI-027] (partner 0.5 µM)
How it was run: (§1)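 Dosing by pin tool came one day after lung cancer cell lines were seeded in 1536-well plates, using either one drug or a fixed anchor-drug dose plus five library-drug doses (not always all listed) in √10 steps. After 5 days, nuclei were counted on 4× images. Relative viability is treated-well nuclei count divided by vehicle-well nuclei count, and values are medians of duplicate plates.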

[2] = compound: COc1cc2ncn(-c3cc(OCc4ccccc4C(F)(F)F)c(C(N)=O)s3)c2cc1OC + CS(=O)(=O)CCNCc1ccc(-c2ccc3ncnc(Nc4ccc(OCc5cccc(F)c5)c(Cl)c4)c3c2)o1 [Lapatinib] (partner 2 µM)
How it was run: as §1

[3] = compound: COc1cc2ncn(-c3cc(OCc4ccccc4C(F)(F)F)c(C(N)=O)s3)c2cc1OC + C[C@]1(O)C[C@@H](c2nc(-c3ccc4ccc(-c5ccccc5)nc4c3)c3c(N)nccn32)C1 [Linsitinib] (partner 1 µM)
How it was run: as §1

[4] = compound: COc1cc2ncn(-c3cc(OCc4ccccc4C(F)(F)F)c(C(N)=O)s3)c2cc1OC + Cc1nc(NC(=O)N2CCC[C@H]2C(N)=O)sc1-c1ccnc(C(C)(C)C(F)(F)F)c1 [Alpelisib] (partner 2 µM)
How it was run: as §1

Cell Line	relative viability ([1]; first compound 0.05 µM)	relative viability ([1]; first compound 0.1581 µM)	relative viability ([1]; first compound 0.5 µM)	relative viability ([1]; first compound 1.581 µM)	relative viability ([1]; first compound 5 µM)	relative viability ([2]; first compound 0.05 µM)	relative viability ([2]; first compound 0.1581 µM)	relative viability ([2]; first compound 0.5 µM)	relative viability ([2]; first compound 1.581 µM)	relative viability ([2]; first compound 5 µM)	relative viability ([3]; first compound 0.05 µM)	relative viability ([3]; first compound 0.1581 µM)	relative viability ([3]; first compound 0.5 µM)	relative viability ([3]; first compound 1.581 µM)	relative viability ([3]; first compound 5 µM)	relative viability ([4]; first compound 0.05 µM)	relative viability ([4]; first compound 0.1581 µM)	relative viability ([4]; first compound 0.5 µM)	relative viability ([4]; first compound 1.581 µM)	relative viability ([4]; first compound 5 µM)
NCI-H2405	0.647	0.613	0.384	0.357	0.268	1.12	0.882	0.669	0.402	0.323	0.99	0.757	0.372	0.424	0.386	0.788	0.634	0.402	0.401	0.38
NCI-H3122	1.01	0.555	0.124	0.113	0.157	1.04	0.58	0.479	0.224	0.244	0.943	1.07	0.256	0.184	0.221	0.842	0.514	0.203	0.149	0.197
PC-3 [JPC-3]	0.79	0.767	0.423	0.169	0.198	0.443	0.508	0.37	0.227	0.263	0.91	0.945	0.744	0.309	0.286	0.983	0.98	0.707	0.307	0.318
PC-14	0.861	0.904	0.254	0.0302	0.027	0.33	0.353	0.318	–	0.278	1.05	0.906	0.463	–	0.106	0.833	0.944	0.768	0.0614	0.135
RERF-LC-KJ	0.534	0.494	0.226	0.205	0.253	0.939	0.987	0.839	–	0.689	0.806	0.901	0.559	–	0.357	0.859	0.849	0.515	0.294	0.622
SK-LU-1	0.33	0.332	0.168	0.196	0.188	0.833	0.842	0.427	0.246	0.197	1.28	1.01	0.395	0.399	0.295	1.02	0.778	0.276	0.291	0.306
SK-MES-1	0.554	0.602	0.219	0.129	0.143	0.445	0.459	0.482	–	0.335	1.03	1.01	0.745	–	0.362	0.924	0.883	0.639	0.148	0.553
SW 1573	0.757	0.606	0.281	0.129	0.105	1.14	0.445	0.918	0.217	0.739	0.733	0.869	0.514	0.173	0.275	0.828	0.669	0.629	0.326	0.182
UMC-11	0.469	0.34	0.147	0.169	0.14	0.991	0.917	0.348	0.195	0.136	0.962	0.912	0.274	0.152	0.136	0.872	0.928	0.128	0.106	0.101
